Legend:
[1] = system: basophil cells (human peripheral blood); assay: Basophil dustmite activation: histamine release assay; assay type: cell-based; conditions: basophils, dust mite activation
Protocol: The basophil activation assay was carried out using whole human peripheral blood from donors allergic to dust mites with the majority of the red blood cells removed by dextran sedimentation. Human peripheral blood was mixed 1:1 with 3% dextran T500 and RBCs were allowed to settle for 20-25min. The upper fraction was diluted with 3 volumes of D-PBS and cells were spun down for 10 min at 1500 rpm, RT. Supernatant was aspirated and cells were washed in an equal volume MT-buffer. Finally, cells were resuspended in MT-buffer containing 0.5% DMSO in the original blood volume. 80 uL cells were mixed with 20 uL compound in the presence of 0.5% DMSO, in triplicate, in a V-bottom 96-well tissue culture plate. A dose range of 8 compound concentrations was tested resulting in a 10-point dose response curve including maximum (stimulated) and minimum (unstimulated) response. […] The cells were stimulated for 30 minutes at 37° C., 5% CO2. The plate was spun for 10 min at 1500 rpm at room temperature and 80 uL the supernatant was harvested for histamine content analysis using the histamine ELISA kit supplied by Immunotech. The ELISA was performed according to supplier's instructions.

[2] = system: bone marrow derived mast cells (BMMC); assay: BMMC high cell density IgE activation: LTC4; assay type: cell-based, mouse; conditions: High Density; read-out: BMMC anti-IgE LTC4
Protocol: After sensitizing, cells are counted, pelleted (1000 rpm, 5-10 minutes), and resuspended at 1-3×10^6 cells/ml in MT buffer. Add 100 ul of cell suspension to each well and 100 ul of compound dilutions. The final vehicle concentration is 0.5% DMSO. Incubate at 37° C. (5% CO2) for 1 hour. After 1 hour of compound treatment, stimulate cells with 6× stimulus (60 ng/ml DNP-BSA). Mix wells with the cells and allow plates to incubate at 37° C. (5% CO2) for one hour. After 1 hour incubation, pellet cells (10 minutes, 1000 RPM) and collect 200 ul per well of the supernatant, being careful not to disturb pellet, and transfer to a clean tube or 96-well plate. Place the supernatant plate on ice. During the 4-5 hour step (see next) perform the hexosiminidase assay. Resuspend cell pellet in 240 ul WEI-conditioned media containing 0.5% DMSO and corresponding concentration of compound. Incubate BMMC cells for 4-5 hours at 37° C. (5% CO2). After incubation, pellet cells (1000 RPM, 10 minutes) and collect 225 ul per well and place in −80° C. until ready to perform ELISAS. ELISAS are performed on appropriately diluted samples (determined empirically for each donor cell population so that the sample measurement falls within the standard curve) following the supplier's instructions.

[3] = 14-day repeat-dose intranasal toxicity study in Cynomolgus monkeys; assay type: in vivo; conditions: 14-day intranasal
Protocol: A 14-day repeat-dose intranasal toxicity study in Cynomolgus monkeys was performed at doses of 2.1, 4.5 or 6.3 mg/kg/day. In life parameters included: clinical observations, body weights, food consumption, ophthalmology, blood pressure, electrocardiography, hematology, clinical chemistry, urinalysis, immunotoxicological assessment, gross necropsy, organ weights, toxicokinetic assessments and histopathology (including the nasal cavity).

[4] = Pilot dose finding studies (oral); assay type: in vivo
[5] = in vitro chromosomal aberration assay
[6] = assay type: in vivo; conditions: rat, 32 days

Oc1cccc(Nc2ncc(F)c(Nc3cccc(O)c3)n2)c1 [Compound R921218]
IC50 [1]: 0.302 µM | IC50 [2]: 0.766 µM | NOAEL (no observed adverse effect level) [3]: 6.3 mg/kg/day

CNC(=O)COc1cccc(Nc2ncc(F)c(Nc3ccc4c(c3)NCCO4)n2)c1 [Compound R921219]
doses not tolerated ([4]; multiple (7-day) doses): ≥ 200 mg/kg/day | NOEL (no observed effect level) ([4]; single oral dose): 600 mg/kg | clastogenic potential, in vitro chromosomal aberration assay [5]: not found to possess elastogenic potential

Nc1cccc(Nc2ncc(F)c(Nc3cccc(N)c3)n2)c1 [Compound R921302]
tolerability, oral doses of 50, 150 and 300 mg/kg [6]: well tolerated

Source: patent US8158621B2, “Methods of treating or preventing autoimmune diseases with 2,4-pyrimidinediamine compounds” (Rigel Pharmaceuticals, Inc., priority 2002, dated 2012)
